Results taken from US20110300147A9, “Inhibiting tumor cell invasion, metastasis and angiogenesis” (The Scripps Research institute, priority 2005, published 2011).

Columns and labels:
breast cancer cells = test: hypoxia induced breast cancer cell migration in vitro; type: cell-based
HUVEC [1] = test: matrigel endothelial cell tube formation assay; type: cell-based, human
Protocol: The effect of AEPI-1 on endothelial cell function was assessed in vitro in a matrigel endothelial cell tube formation assay. […] In contrast, addition of recombinant legumain dramatically promoted and accelerated tube formation (FIG. 4D). HUVEC tube formation was observed as early as 5 hours after assay initiation when legumain was added. Under normal conditions 24 hours were required for the vascular tubes to form.

legumain = biological target: T1, legumain (Mus musculus, UniProt O89017); test: legumain activity in tissues after systemic administration of AEPI-1; type: in vivo, mice
T1 construct: from tissue
T1 sequence (O89017 18-325): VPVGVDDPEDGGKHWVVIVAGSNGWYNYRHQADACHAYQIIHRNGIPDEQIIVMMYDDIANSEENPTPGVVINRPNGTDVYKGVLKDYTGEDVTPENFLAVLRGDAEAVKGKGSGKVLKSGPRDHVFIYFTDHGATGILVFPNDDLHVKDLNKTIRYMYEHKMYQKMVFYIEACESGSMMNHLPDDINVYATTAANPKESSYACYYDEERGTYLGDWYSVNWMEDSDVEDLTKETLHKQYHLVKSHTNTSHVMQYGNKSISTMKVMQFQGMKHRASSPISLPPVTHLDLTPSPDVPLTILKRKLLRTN

4T1 mammary carcinoma = test: primary 4T1 tumor and spontaneous lung metastasis model; type: in vivo, BALB/c mice; settings: AEPI-1 50 μg i.p. every two days for two weeks
Protocol: Primary 4T1 tumors are generated by subcutaneous injection of 5×10^5 4T1 cells in the right flank of six-week-old BALB/c mice. Two different groups of four animals were treated between days 9 and 27 after tumor induction. The treatments were 100-μl […] injections of PBS alone (control group) or LEG-3 100 μg/100 μl in PBS by intraperitoneal injection every two days for two weeks. Tumor volumes of treated animals were measured every two-day starting on day 9 by microcaliper measurements (volume=width×length×width/2). As soon as the tumor volume reached 1400 mm^3 in the control groups (on day 30th), euthanasia was performed and lungs were removed and fixed in the Bouin's solution. Lung metastases were counted by anatomy microscope. Statistical significance between treatment groups was determined by two-tailed Student's t tests using Microsoft EXCEL software.
Tumor induction was performed by subcutaneous injection of 5×10^5 4T1 cells in the right flank mammary fat pat of six-week-old BALB/c mice. […] Tumor volumes of treated animals were measured everyday starting on day 6 by micro-caliper measurements (volume=width×length×width/2). […] Lung metastases were counted by anatomy microscope. The statistical significance between treatment and control groups was determined by two-tailed Student's t tests using Microsoft EXCEL software.

4T1 breast cells = test: 4T1 experimental lung metastasis model; type: in vivo, BALB/c mice; settings: AEPI-1 100 μg i.p. daily for two weeks
Protocol: A lung metastasis model was induced experimentally by injecting a cell suspension of 4T1 breast cells (1×10^5) suspended in 0.1 ml serum free medium into the tail vein of six-week-old female BALB/c mice. The mice were treated with 100-μl intraperitoneal injections of either PBS alone (control group) or LEG-3 (100 μg/100 μl) daily for two weeks.
4T1 Lung Experimental Metastasis was generated by suspending 4T1 cells (1×10^5) in 0.1 ml serum-free medium and injecting these cells into the tail vein of mice under the anesthesia. Treatment involved 100 μl intraperitoneal injection of either saline alone (control group) or AEPI-1 (treatment group). The AEPI-1 treatment group was given 100 μg AEPI-1 in saline (100 ul) by intraperitoneal injection daily for two weeks. All mice were euthanized by CO2 and lungs were removed, weighted and fixed in the Bouin's solution. Lung metastases were counted by anatomy microscope.

MDA-MB-231 cells = test: MDA-MB-231 human mammary carcinoma model; type: in vivo, Balb C nu/nu mice; settings: two weeks after tumor cell implantation
Protocol: The effect of AEPI-1 on tumor growth and invasion was then evaluated in a human mammary carcinoma model established in Balb C nu/nu mice. The MDA-MB-231 cells grew aggressively in vivo and formed a tumor that was similar to a human infiltrating ductal carcinoma with apparent glandular differentiation. The tumor locally invaded surrounding tissues and skeletal muscles.

[2] = test system: angiogenesis in Matrigel plugs; test: Matrigel plug angiogenesis assay in vivo; parameters: species or system Balb C nu/nu mice
Protocol: The effect of AEPI-1 on angiogenesis was further investigated in vivo using a Matrigel plug assay. Matrigel containing FGF-2 was injected subcutaneously into Balb C nu/nu mice.
The effect of AEPI-1 on angiogenesis induced by cancer cells was then investigated by including human breast cancer cells (MDA-MB-231 cells) in the Matrigel plugs. The cancer cells produced a spectrum of angiogenic factors and induced robust angiogenic vessel growth (FIG. 5C).

HUVEC [3] = test: endothelial cell invasion assay under hypoxia; type: cell-based, human; settings: hypoxic conditions
Protocol: Cell invasion and mobility assays. Cell migration and invasion assays were performed as described with modifications (Albini et al., 1987). Stock solutions (15 mg/ml) of Matrigel basement membrane matrix (Becton Dickinson, Bedford, Mass.) were stored at −80° C. in 100 μl aliquots. After thawing on ice, the stock was diluted 1:50 with cold serum-free culture media and immediately applied to each membrane insert (8 μm pore) that formed the upper chambers of the multi-well invasion assay plate. The Matrigel was incubated overnight in a sterile laminar tissue culture hood. The membranes were hydrated for 2 hours with 250 μl of serum-free medium and excess medium was removed by aspiration. Medium containing 10% FBS was added to the bottom of each well. A suspension of 10^5 cells in 150 μl of serum-free medium was added to the upper chamber and incubated for 12 hours at 37° C., 5% CO2. At the indicated times, the membrane inserts were removed from the plate and the non-invading cells were removed from the upper surface. Membrane associated cells were stained with 0.09% crystal violet for 30 minutes and washed twice with PBS. The invading cells were counted microscopically. […]
The effect of AEPI-1 on endothelial cell function was assessed in vitro in a matrigel endothelial cell tube formation assay. […]

cell permeability (legumain; inferred from tumor vs kidney legumain activity): substantially impermeable to cells | legumain activity in kidney (legumain; systemic administration): does not affect
Compound: CCOC(=O)C1OC1C(=O)N(CC(N)=O)NC(=O)[C@H](C)NC(=O)[C@H](C)NC(=O)OCc1ccccc1 (stereo partly drawn) [AEPI-1, Cbz-Ala-Ala-AzaAsn-(S,S)-EPCOOEt]
hypoxia induced breast cancer cell migration (breast cancer cells): inhibited | concentration at which inhibition of tube formation was apparent (HUVEC [1]; HUVEC, matrigel): 100 nM | concentration at which tube formation was completely inhibited (HUVEC [1]; HUVEC, matrigel): 600 nM | hypoxia induced tube formation (HUVEC [1]; hypoxic conditions): inhibited | HUVEC tube formation (HUVEC [1]; matrigel, normal conditions): suppressed HUVEC tube formation in a dose dependent manner | legumain activity in 4T1 tumors (legumain; systemic administration): inhibited legumain activity in 4T1 tumors | growth of 4T1 mammary carcinoma (4T1 mammary carcinoma): inhibits the growth | spontaneous lung metastasis (4T1 mammary carcinoma): inhibited spontaneous lung metastasis | experimental lung metastasis (4T1 breast cells): inhibited experimental lung metastasis | tumor differentiation into a more invasive form (MDA-MB-231 cells): blocked | tumor growth (MDA-MB-231 cells): completely suppressed tumor growth | cancer cell-induced angiogenesis in the plug ([2]; MDA-MB-231 cells in the Matrigel plugs): essentially completely inhibited | FGF-2 induced vessel formation in the plug ([2]; Matrigel containing FGF-2 s.c., gross appearance, hemoglobin content, histology): significantly inhibited | hypoxia induced endothelial cell invasion (HUVEC [3]): inhibited
